How the values were obtained:
[1] = molecular target: T1, DGKζ (Homo sapiens, UniProt Q13574); assay: DGKζ biochemical assay (ADP-Glo); details: read-out: DGK ζ IC50
T1 construct: purchased Carna 12-110
Experimental: (§1) Compounds of the present invention were prepared into 10 mM DMSO solution and 10 nL of stock was transferred into 384 plates (Optiplate 384 plate) using Echo550. DMSO was used as high control, and ATP substrate buffer was used as a low control. A 1× enzyme assay buffer was prepared (Hepes, pH 7.0 25 mM, BSA 0.05%, Triton-X100 0.002%, CaCl2) 1 μM, MgCl2 10 mM, DTT 2 mM). […] OAG (1-oleoyl-2-acetyl-sn-glycerol, 25 mg/ml, Avanti 8001000) and PS (10 mg/ml, Avanti 840032P) were mixed at the ratio of 1:2. A 1× substrate solution was prepared with 1× assay buffer by 100-fold dilution. The substrate solution was sonicated on ice for 1 min. The pure ATP was added to the substrate solution (DGKα:400 μM). 5 μL of the enzyme solution were added to the 384 well plate, and the plate was spun for 1 min at 1000 rpm and incubated for 30 mins at RT. 5 μL of 1× substrate solution were added to the 384 well plate, the plate was spun and then incubated for 45 mins at RT. 10 μL ADP-Glo […] was added to stop the assay. After 60 mins at RT, 20 μL ADP-Glo Detection buffer was added as the final step. Plate was read after 45 min incubation at RT.
(§2) Data analysis was performed by calculating the […] using following the formula:
(§3) [formula] • High control (Hc): DMSO/DGKα(DGKζ)/Substrate/ATP/ADP-Glo • Low Control (Lc): ATP/ADP-Glo

[2] = molecular target: DGKα (Homo sapiens, UniProt P23743); assay: DGKα biochemical assay (ADP-Glo); details: read-out: DGK α IC50
Experimental: as §1, §2, §3

DGKα, sequence (P23743 whole entry): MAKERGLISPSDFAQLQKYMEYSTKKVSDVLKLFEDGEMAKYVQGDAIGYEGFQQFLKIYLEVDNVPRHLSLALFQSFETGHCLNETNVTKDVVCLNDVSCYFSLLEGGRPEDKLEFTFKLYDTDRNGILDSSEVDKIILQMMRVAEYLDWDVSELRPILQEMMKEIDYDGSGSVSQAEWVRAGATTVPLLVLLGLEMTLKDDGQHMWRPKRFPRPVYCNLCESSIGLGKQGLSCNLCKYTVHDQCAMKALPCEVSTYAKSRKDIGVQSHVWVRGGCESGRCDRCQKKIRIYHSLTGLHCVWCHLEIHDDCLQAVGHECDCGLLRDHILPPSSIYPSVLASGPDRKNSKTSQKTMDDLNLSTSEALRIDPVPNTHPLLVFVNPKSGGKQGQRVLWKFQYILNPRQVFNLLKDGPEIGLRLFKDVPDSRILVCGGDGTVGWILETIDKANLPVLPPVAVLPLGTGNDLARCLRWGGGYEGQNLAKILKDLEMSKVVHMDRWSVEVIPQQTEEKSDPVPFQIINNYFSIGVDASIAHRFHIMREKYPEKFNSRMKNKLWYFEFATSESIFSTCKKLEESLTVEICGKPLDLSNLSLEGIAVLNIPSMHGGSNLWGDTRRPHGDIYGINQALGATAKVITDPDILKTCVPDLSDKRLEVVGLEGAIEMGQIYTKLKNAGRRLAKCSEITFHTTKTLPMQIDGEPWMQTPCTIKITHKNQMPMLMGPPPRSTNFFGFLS
T1 sequence (Q13574 1-929 isoform Q13574-4): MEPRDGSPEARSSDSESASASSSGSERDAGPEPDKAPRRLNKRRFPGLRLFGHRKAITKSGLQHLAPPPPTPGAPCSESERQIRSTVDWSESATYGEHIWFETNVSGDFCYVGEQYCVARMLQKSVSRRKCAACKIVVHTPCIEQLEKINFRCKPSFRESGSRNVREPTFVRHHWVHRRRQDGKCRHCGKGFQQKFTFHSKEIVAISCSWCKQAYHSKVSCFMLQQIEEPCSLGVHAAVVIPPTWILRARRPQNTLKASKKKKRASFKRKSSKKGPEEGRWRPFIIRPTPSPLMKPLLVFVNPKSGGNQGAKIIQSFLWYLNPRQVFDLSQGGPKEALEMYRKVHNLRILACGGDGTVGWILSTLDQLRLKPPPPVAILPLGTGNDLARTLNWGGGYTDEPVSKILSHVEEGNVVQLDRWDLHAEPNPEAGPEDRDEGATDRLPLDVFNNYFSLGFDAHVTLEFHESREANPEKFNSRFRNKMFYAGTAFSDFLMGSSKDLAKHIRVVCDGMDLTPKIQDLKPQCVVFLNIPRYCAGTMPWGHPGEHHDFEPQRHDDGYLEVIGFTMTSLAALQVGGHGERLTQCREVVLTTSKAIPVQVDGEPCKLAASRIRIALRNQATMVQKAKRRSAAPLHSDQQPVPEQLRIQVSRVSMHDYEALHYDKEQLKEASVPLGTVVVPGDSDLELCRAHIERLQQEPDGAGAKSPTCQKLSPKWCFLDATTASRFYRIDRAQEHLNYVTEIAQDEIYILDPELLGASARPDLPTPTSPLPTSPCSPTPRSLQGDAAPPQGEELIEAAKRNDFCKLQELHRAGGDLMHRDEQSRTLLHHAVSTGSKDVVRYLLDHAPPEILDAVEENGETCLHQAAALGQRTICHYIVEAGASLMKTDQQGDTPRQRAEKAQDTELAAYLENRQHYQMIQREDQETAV

IC50 [1] [µM] | IC50 [2] [µM] | Compound
0.1 to 1 | 0.01 to 0.1 | Cn1c(=O)c(C#N)c(N(C)[C@H]2CC[C@H](N(CC3CCC3)c3cccc4c3OCO4)CC2)c2nc(C#N)ccc21 [Example 112, trans-8-((-4-(benzo[d][1,3]dioxol-4-yl(cyclobutylmethyl)amino)cyclohexyl)(methyl)amino)-5-methyl-6-oxo-5,6-dihydro-1,5-naphthyridine-2,7-dicarbonitrile]
≥ 1 | 0.01 to 0.1 | Cn1c(=O)c(C#N)c(N(C)[C@H]2CC[C@H](N(c3ccc(F)cc3O)C3CC3)CC2)c2nc(Cl)ccc21 [Example 3G, trans-6-chloro-4-((4-(cyclopropyl(4-fluoro-2-hydroxyphenyl)amino)cyclohexyl)(methyl)amino)-1-methyl-2-oxo-1,2-dihydro-1,5-naphthyridine-3-carbonitrile]
0.1 to 1 | 0.01 to 0.1 | Cn1c(=O)cc(N(C)[C@H]2CC[C@@H](N(CC3CC3)c3ccc(F)c(OC(F)F)c3)CC2)c2nc(C#N)ccc21 [Example 84]
0.1 to 1 | 0.01 to 0.1 | Cn1c(=O)c(C#N)c(N(C)[C@H]2CC[C@H](N(c3ccc(F)cn3)C3CC3)CC2)c2nc(Cl)ccc21 [Example 3I]
≥ 1 | 0.1 to 1 | Cn1c(=O)cc(N(C)[C@H]2CC[C@H](N(c3ccc(F)cc3O)C3CC3)CC2)c2nc(C#N)ccc21 [Example 3X, trans-8-((4-(cyclopropyl(4-fluoro-2-hydroxyphenyl)amino)cyclohexyl)(methyl)amino)-5-methyl-6-oxo-5,6-dihydro-1,5-naphthyridine-2-carbonitrile]
0.1 to 1 | 0.1 to 1 | Cc1cc(F)ccc1N(CC1COCCO1)[C@H]1CC[C@H](N(C)c2c(C#N)c(=O)n(C)c3ccc(C#N)nc23)CC1 (stereo partly drawn) [Example 173, trans-8-((4-(((1,4-dioxan-2-yl)methyl)(4-fluoro-2-methylphenyl)amino)cyclohexyl)(methyl)amino)-5-methyl-6-oxo-5,6-dihydro-1,5-naphthyridine-2,7-dicarbonitrile]
≥ 1 | 0.1 to 1 | Cn1c(=O)cc(N2CCC(N(CC3CC3)c3ccccc3O)CC2)c2nc(C#N)ccc21 [Example 1A, 8-(4-((Cyclopropylmethyl)(2-hydroxyphenyl)amino)piperidin-1-yl)-5-methyl-6-oxo-5,6-dihydro-1,5-naphthyridine-2-carbonitrile]
≥ 1 | 0.01 to 0.1 | Cn1c(=O)c(C#N)c(N(C)[C@H]2CC[C@H](N(CC3COC3)c3ccc(F)cc3)CC2)c2nc(Cl)ccc21 [Example 3N, trans-6-Chloro-4-[[4-(N-4-fluorophenyl-N-oxetan-3-ylmethylanilino)cyclohexyl]-methylamino]-1-methyl-2-oxo-1,2-dihydro-1,5-naphthyridine-3-carbonitrile]
≥ 1 | 0.01 to 0.1 | Cn1c(=O)cc(N(C)[C@H]2CC[C@@H](N(CC3CC3)c3ccc(Cl)cc3)CC2)c2nc(C#N)ccc21 [Example 7, cis-8-((4-((4-chlorophenyl)(cyclopropylmethyl)amino)cyclohexyl)(methyl)amino)-5-methyl-6-oxo-5,6-dihydro-1,5-naphthyridine-2-carbonitrile]
0.01 to 0.1 | < 0.01 | Cn1c(=O)c(C#N)c(N(C)[C@H]2CC[C@@H](N(C[C@H]3CCCOC3)c3ccc4c(c3)OCO4)CC2)c2nc(C#N)ccc21 [Example 143, cis-8-((-4-(benzo[d][1,3]dioxol-5-yl(((R)-tetrahydro-2H-pyran-3-yl)methyl)amino)cyclohexyl)(methyl)amino)-5-methyl-6-oxo-5,6-dihydro-1,5-naphthyridine-2,7-dicarbonitrile]
0.1 to 1 | ≥ 1 | COc1cc(N(CC2CC2)[C@H]2CC[C@H](N(C)c3c(C#N)c(=O)n(C)c4ccc(C#N)nc34)CC2)cc(F)c1F [Example 77]
≥ 1 | ≥ 1 | Cn1c(=O)c([N+](=O)[O-])c(N2CCC(N(CC3COC3)c3ccccc3)CC2)c2nc(C#N)ccc21 [Example 1C, 5-Methyl-7-nitro-8-(4-((oxetan-3-ylmethyl)(phenyl)amino)piperidin-1-yl)-6-oxo-5,6-dihydro-1,5-naphthyridine-2-carbonitrile]
≥ 1 | 0.1 to 1 | CN1C(=O)CN([C@H]2CC[C@@H](N(CC3CC3)c3ccccc3)CC2)c2nc(C#N)ccc21 [Example 2C, cis-4-[4-[N-(Cyclopropylmethyl)anilino]cyclohexyl]-1-methyl-2-oxo-3H-pyrido[2,3-b]pyrazine-6-carbonitrile]

Second part, the compound before the results:

Compound | IC50 [1] [µM] | IC50 [2] [µM]
Cc1cc(F)ccc1N(CC1COCCN1C)[C@H]1CC[C@H](N(C)c2c(C#N)c(=O)n(C)c3ccc(C#N)nc23)CC1 (stereo partly drawn) [Example 185, trans-8-((-4-((4-fluoro-2-methylphenyl)((4-methylmorpholin-3-yl)methyl)amino)cyclohexyl) (methyl)amino)-5-methyl-6-oxo-5,6-dihydro-1,5-naphthyridine-2,7-dicarbonitrile] | 0.1 to 1 | 0.1 to 1
CC(C)C(=O)N(c1ccc(F)cc1)[C@H]1CC[C@@H](N(C)c2c(C#N)c(=O)n(C)c3ccc(C#N)nc23)CC1 [Example 209, cis-N-(4-((3,6-dicyano-1-methyl-2-oxo-1,2-dihydro-1,5-naphthyridin-4-yl)(methyl)amino)cyclohexyl)-N-(4-fluorophenyl)isobutyramide] | ≥ 1 | 0.1 to 1
Cc1cc(F)c(F)cc1N(CC1CCC1)[C@H]1CC[C@H](N(C)c2c(C#N)c(=O)n(C)c3ccc(Cl)nc23)CC1 [Example 137, trans-6-chloro-4-((4-((cyclobutylmethyl)(4,5-difluoro-2-methylphenyl)amino)cyclohexyl)(methyl)amino)-1-methyl-2-oxo-1,2-dihydro-1,5-naphthyridine-3-carbonitrile] | ≥ 1 | ≥ 1
Cn1c(=O)c(C#N)c(N(C)[C@H]2CC[C@@H](N(c3ccc(F)cc3F)C3CC3)CC2)c2nc(Cl)ccc21 [Example 5, cis-6-chloro-4-((-4-(cyclopropyl(2,4-difluorophenyl)amino)cyclohexyl)(methyl)amino)-1-methyl-2-oxo-1,2-dihydro-1,5-naphthyridine-3-carbonitrile] | ≥ 1 | 0.1 to 1
CN1Cc2ccc(N(CC3CC3)[C@H]3CC[C@@H](N(C)c4c(C#N)c(=O)n(C)c5ccc(C#N)nc45)CC3)cc2C1=O [Example 204, cis-8-((-4-((cyclopropylmethyl)(2-methyl-3-oxoisoindolin-5-yl)amino)cyclohexyl)(methyl)amino)-5-methyl-6-oxo-5,6-dihydro-1,5-naphthyridine-2,7-dicarbonitrile] | ≥ 1 | ≥ 1
COc1cc(N(CC2CC2)[C@H]2CC[C@@H](N(C)c3c(C#N)c(=O)n(C)c4ccc(C#N)nc34)CC2)cc(OC)c1F [Example 101] | 0.01 to 0.1 | ≥ 1
Cn1c(=O)c(C#N)c(N(C)[C@H]2CC[C@@H](N(CC3CCC3)c3ccc4c(c3)OC(F)(F)O4)CC2)c2nc(C#N)ccc21 [Example 121, cis-8-((-4-((cyclobutylmethyl)(2,2-difluorobenzo[d] [1,3]dioxol-5-yl)amino)cyclohexyl)(methyl)amino)-5-methyl-6-oxo-5,6-dihydro-1,5-naphthyridine-2,7-dicarbonitrile] | 0.01 to 0.1 | 0.01 to 0.1
COc1cccc(N(CC2CC2)[C@H]2CC[C@@H](N(C)c3c(C#N)c(=O)n(C)c4cccnc34)CC2)c1 [Example 15, cis-4-((4-((cyclopropylmethyl)(3-methoxyphenyl)amino)cyclohexyl)(methyl)amino)-1-methyl-2-oxo-1,2-dihydro-1,5-naphthyridine-3-carbonitrile] | ≥ 1 | 0.1 to 1
Cc1cc(F)ccc1N(CC1CCOC1)[C@H]1CC[C@@H](N(C)c2cc(=O)n(C)c3ccc(C#N)nc23)CC1 (stereo partly drawn) [Example 164, cis-8-((-4-((4-fluoro-2-methylphenyl) ((tetrahydrofuran-3-yl)methyl)amino)cyclohexyl) (methyl)amino)-5-methyl-6-oxo-5,6-dihydro-1,5-naphthyridine-2-carbonitrile] | 0.1 to 1 | 0.1 to 1
Cn1c(=O)c(C#N)c(N(C)[C@H]2CC[C@H](N(CC3CCC3)c3ccc(F)cc3CO)CC2)c2nc(C#N)ccc21 [Example 155, trans-8-((4-((cyclobutylmethyl)(4-fluoro-2-(hydroxymethyl)phenyl)amino)cyclohexyl)(methyl)amino)-5-methyl-6-oxo-5,6-dihydro-1,5-naphthyridine-2,7-dicarbonitrile] | 0.01 to 0.1 | 0.01 to 0.1
Cn1c(=O)cc(N(C)[C@H]2CC[C@@H](N(CC(C)(C)CO)c3ccc(F)cc3)CC2)c2nc(C#N)ccc21 [Example 194, cis-8-((-4-((4-fluorophenyl)(3-hydroxy-2,2-dimethylpropyl)amino)cyclohexyl)(methyl)amino)-5-methyl-6-oxo-5,6-dihydro-1,5-naphthyridine-2-carbonitrile] | ≥ 1 | 0.1 to 1
